Measurements: paper PMC10541190 (The Journal of Clinical Investigation, 2023)
Where “and” joins values, the source holds several entries; their conditions need not be identical. Equal values may be shown once. Read-outs that look alike come from different tables or passages of the source.

How the values were obtained:
[1] = test system: SARS-CoV-2 (Belgium-GHB-03021); assay type: cell-based
VEEV (TrD) [2] = assay: microbe, parasite or virus in culture; assay type: cell-based; details: Venezuelan equine encephalitis virus, U-87 MG, read-out: EC50, VEEV (TrD) infection
VEEV (TC-83) = assay type: cell-based
VEEV (TrD) [3] = assay type: cell-based
ErbB2 (HER2) = ErbB2 (HER2) (Homo sapiens, UniProt P04626); assay: biochemical; details: read-out: ErbB2 activity (%)
ErbB4 = ErbB4 (Homo sapiens, UniProt Q15303); assay: biochemical; details: read-out: ErbB4 activity (%)
SARS-CoV-2 = assay type: cell-based
Huh7 cells = details: human
ErbB1 = details: cited from earlier work

Chain of ErbB2 (HER2) (P04626 23-1255): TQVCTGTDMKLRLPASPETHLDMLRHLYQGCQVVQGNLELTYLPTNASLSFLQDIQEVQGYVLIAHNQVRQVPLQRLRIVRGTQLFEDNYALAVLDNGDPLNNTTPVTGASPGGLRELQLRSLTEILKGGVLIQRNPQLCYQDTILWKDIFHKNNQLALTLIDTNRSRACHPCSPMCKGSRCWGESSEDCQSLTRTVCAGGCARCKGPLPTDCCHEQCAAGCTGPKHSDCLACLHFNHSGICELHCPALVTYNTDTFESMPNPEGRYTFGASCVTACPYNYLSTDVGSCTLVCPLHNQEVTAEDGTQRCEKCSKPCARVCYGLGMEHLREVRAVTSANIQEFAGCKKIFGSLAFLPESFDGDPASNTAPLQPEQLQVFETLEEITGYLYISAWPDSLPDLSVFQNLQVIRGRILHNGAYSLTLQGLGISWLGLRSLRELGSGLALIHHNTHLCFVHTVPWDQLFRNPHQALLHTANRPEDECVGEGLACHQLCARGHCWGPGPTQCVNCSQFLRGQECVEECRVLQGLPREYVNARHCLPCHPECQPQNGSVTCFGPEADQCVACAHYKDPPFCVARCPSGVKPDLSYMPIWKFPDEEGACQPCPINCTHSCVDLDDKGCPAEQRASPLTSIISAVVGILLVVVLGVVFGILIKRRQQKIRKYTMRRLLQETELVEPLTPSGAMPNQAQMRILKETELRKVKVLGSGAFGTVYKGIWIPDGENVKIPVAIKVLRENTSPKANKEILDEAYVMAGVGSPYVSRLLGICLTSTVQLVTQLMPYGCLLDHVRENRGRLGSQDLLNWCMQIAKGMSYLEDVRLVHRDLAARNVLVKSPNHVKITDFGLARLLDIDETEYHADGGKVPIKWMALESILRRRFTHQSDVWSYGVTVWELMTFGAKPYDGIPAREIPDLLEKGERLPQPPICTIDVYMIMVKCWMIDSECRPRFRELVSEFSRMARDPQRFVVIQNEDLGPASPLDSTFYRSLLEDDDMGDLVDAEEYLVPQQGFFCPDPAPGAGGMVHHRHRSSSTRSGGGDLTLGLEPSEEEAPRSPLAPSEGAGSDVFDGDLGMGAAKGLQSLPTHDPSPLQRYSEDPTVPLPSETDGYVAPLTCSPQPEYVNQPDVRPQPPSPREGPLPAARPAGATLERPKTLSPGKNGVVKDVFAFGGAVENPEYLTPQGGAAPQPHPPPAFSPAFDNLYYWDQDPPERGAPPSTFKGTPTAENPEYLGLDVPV
Chain of ErbB4 (Q15303 26-1308): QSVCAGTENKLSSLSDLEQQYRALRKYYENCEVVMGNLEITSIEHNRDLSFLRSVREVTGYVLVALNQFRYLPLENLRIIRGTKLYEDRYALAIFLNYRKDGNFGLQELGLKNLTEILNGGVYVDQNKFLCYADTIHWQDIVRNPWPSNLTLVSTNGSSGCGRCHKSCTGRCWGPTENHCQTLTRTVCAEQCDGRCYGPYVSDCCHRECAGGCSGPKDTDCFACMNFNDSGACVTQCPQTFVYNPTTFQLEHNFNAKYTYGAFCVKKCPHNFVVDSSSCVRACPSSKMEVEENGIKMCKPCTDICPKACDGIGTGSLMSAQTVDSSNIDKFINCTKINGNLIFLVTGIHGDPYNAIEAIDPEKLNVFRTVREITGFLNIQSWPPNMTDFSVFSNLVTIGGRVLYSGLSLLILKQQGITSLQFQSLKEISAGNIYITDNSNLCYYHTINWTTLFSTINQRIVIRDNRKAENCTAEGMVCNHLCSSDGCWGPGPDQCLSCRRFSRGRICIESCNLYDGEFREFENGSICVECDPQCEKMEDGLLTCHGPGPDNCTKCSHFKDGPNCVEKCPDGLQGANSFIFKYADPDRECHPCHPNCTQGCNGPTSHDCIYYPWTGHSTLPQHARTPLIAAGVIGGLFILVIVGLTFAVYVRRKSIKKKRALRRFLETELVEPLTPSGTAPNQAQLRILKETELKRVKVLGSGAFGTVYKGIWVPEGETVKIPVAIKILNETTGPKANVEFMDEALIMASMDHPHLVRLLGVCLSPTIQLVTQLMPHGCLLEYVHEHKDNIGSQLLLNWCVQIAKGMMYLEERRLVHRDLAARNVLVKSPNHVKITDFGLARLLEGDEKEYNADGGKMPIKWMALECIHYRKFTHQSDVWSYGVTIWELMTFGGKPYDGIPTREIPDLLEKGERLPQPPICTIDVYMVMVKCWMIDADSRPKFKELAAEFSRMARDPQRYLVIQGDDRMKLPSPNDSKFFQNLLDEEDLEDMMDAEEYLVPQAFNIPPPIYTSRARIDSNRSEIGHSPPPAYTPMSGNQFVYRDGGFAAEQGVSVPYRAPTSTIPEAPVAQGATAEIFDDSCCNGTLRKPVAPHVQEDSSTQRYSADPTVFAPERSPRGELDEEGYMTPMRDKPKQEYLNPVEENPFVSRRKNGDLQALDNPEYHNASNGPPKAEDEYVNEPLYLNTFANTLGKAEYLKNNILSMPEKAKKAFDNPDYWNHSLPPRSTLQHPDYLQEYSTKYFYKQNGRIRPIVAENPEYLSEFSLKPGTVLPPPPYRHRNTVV

Q: Which “rescue of Vero-eGFP cells from SARS-CoV-2-induced lethality, dose response” value [1] does the source give for `CS(=O)(=O)CCNCc1ccc(-c2ccc3ncnc(Nc4ccc(OCc5cccc(F)c5)c(Cl)c4)c3c2)o1` [Lapatinib] here?
A: dose-dependent rescue

Q: And the EC50 (VEEV (TrD) [2])?
A: 900 nM

Q: What about the “replication of TC-83” value (VEEV (TC-83)) of the same compound?
A: dose-dependently inhibited replication

Q: And the “VEEV (TrD) replication in vascular and brain sides of the gNVU” value (VEEV (TrD) [3])?
A: suppressed VEEV (TrD) replication

Q: And the activity at 0.001 µM (ErbB2 (HER2))?
A: 91.6%

Q: What about the activity at 0.003 µM (ErbB2 (HER2)) of the same compound?
A: 84.5%

Q: What about the activity at 0.009 µM (ErbB2 (HER2)) of the same compound?
A: 64%

Q: What about the activity at 0.247 µM (ErbB2 (HER2)) of the same compound?
A: 14%

Q: And the activity at 2.222 µM (ErbB2 (HER2))?
A: 3.4%

Q: And the activity at 6.667 µM (ErbB2 (HER2))?
A: 2.28%

Q: And the activity at 20 µM (ErbB2 (HER2))?
A: 2%

Q: And the activity at […] (ErbB2 (HER2))?
A: 27.2% and 45.3% and 6.63%

Q: And the activity at 0.001 µM (ErbB4)?
A: 104%

Q: And the activity at 0.003 µM (ErbB4)?
A: 93.7%

Q: And the activity at 0.009 µM (ErbB4)?
A: 68.4%

Q: What about the activity at 0.247 µM (ErbB4) of the same compound?
A: 17.5%

Q: What about the activity at 2.222 µM (ErbB4) of the same compound?
A: 6.13%

Q: What about the activity at 6.667 µM (ErbB4) of the same compound?
A: 3.13%

Q: And the activity at 20 µM (ErbB4)?
A: 2.93%

Q: What about the activity at […] (ErbB4) of the same compound?
A: 31.2% and 54.5% and 8.67%

Q: What about the “suppression of viral infection” value (SARS-CoV-2) of the same compound?
A: 98% and 75% and 99% and 84% and 57%

Q: And the “Huh7 cell viability (%)” value (Huh7 cells; 1.111 µM)?
A: 102.98%

Q: What about the “Huh7 cell viability (%)” value (Huh7 cells; 10 µM) of the same compound?
A: 86.28%

Q: And the “% of control, ErbB1” value (ErbB1)?
A: 5.3 nM 0%
